Tested on: Liver ApoB mRNA
Test: Liver ApoB mRNA knockdown after IV injection of LNP formulations, branched DNA assay (QuantiGene) relative to GAPDH
Assay type: in vivo, female Balb/c mice
Conditions: 1:57 LNP with ApoB siRNA; for ApoB knockdown relative to PBS control: IV 0.033 mg/kg total siRNA, standard deviation in brackets; for ApoB knockdown relative to PBS control / ApoB knockdown relative PBS control: liver mRNA at 48 hours; for ApoB-silencing activity of LNP formulations (in words): IV 0.033 mg/kg, summary of Table 3
Method: LNP formulations were administered by IV injection at 0.033 mg/kg total siRNA dose into female Balb/c mice (n=3 per group). Liver ApoB mRNA levels were evaluated at 48 hours after LNP administration by a branched DNA assay (QuantiGene assay) to assess ApoB mRNA relative to the housekeeping gene GAPDH.
LNP formulations were administered by intravenous injection at doses of 0.0075, 0.015 and 0.03 mg/kg total siRNA dose into female Balb/c mice (n=3 per group). Liver ApoB mRNA levels were evaluated 48 hours after LNP administration by a branched DNA assay (QuantiGene assay) and standardized relative to the housekeeping gene GAPDH.

SMILES	ApoB knockdown relative to PBS control	ApoB-silencing activity of LNP formulations (in words)	ApoB knockdown relative PBS control (IV 0.0075 mg/kg total siRNA) [%]	ApoB knockdown relative PBS control (IV 0.015 mg/kg total siRNA) [%]	ApoB knockdown relative PBS control (IV 0.03 mg/kg total siRNA) [%]	Potency of LNP formulations compared with reference lipid (in words) (IV 0.0075, 0.015 and 0.03 mg/kg, summary of Table 5)
CCCCC/C=C\C/C=C\CCCCCCCCC1CC(CCCCCCC/C=C\C/C=C\CCCCC)OC(CCN(C)C)O1 (centres unmarked) [Compound 8, 2-(4-((8Z,11Z)-heptadeca-8,11-dien-1-yl)-6-((9Z,12Z)-octadeca-9,12-dien-1-yl)-1,3-dioxan-2-yl)-N,N-dimethylethanamine]	−71 (±2.7) %	particularly potent ApoB-silencing activity	–	–	–	–
CCCCC/C=C\C/C=C\CCCCCCCCC1CC(CCCCCCC/C=C\C/C=C\CCCCC)OC(CCCN(C)C)O1 (centres unmarked) [Compound 9, 3-(4-((8Z,11Z)-heptadeca-8,11-dien-1-yl)-6-((9Z,12Z)-octadeca-9,12-dien-1-yl)-1,3-dioxan-2-yl)-N,N-dimethylpropan-1-amine]	−80 (±3.3) %	particularly potent ApoB-silencing activity	−39	−51	−73	more potent than LNP formulations containing C2K
CCCCC/C=C\C/C=C\CCCCCCCCC1(CCCCCCCC/C=C\C/C=C\CCCCC)OCC(CCN(C)C)O1 (centres unmarked) [Compound C2K, 2,2-dilinoleyl-4-(2-dimethylaminoethyl)[1,3]-dioxolane, reference compound]	–	–	−25	−41	−54	–

— US9126966B2, “Cationic lipids and methods of use thereof” (Protiva Biotherapeutics, Inc., priority 2011, dated 2015)
